Consider 27 compounds from patent US9969726B2, “Metabotropic glutamate receptor negative allosteric modulators (NAMS) and uses thereof” (Sanford-Burnham Medical Research Institute, priority 2014, dated 2018).

Test [1] has as its target rat mGlu2 receptor (Rattus norvegicus (Rat), UniProt P31421). Kind of test: mGlu2 in vitro GIRK thallium flux assay. The note with it: NAM, EC80 glutamate, HEK-293 GIRK cells. Type of test: cell-based. Summed up: (§1)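 Cells expressing rat mGlu2 or mGlu3 with GIRK, plated overnight at 37 °C. Test compounds (0.3% DMSO, 10-point 1:3 series) preincubated 2.5 or 60 min, then thallium buffer plus EC80 glutamate added. Fluorescence slope 5–15 s after addition, normalised to vehicle and maximal agonist, fitted by four-parameter logistic.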

In test [2] the target is rat mGlu3 receptor (Rattus norvegicus (Rat), UniProt P31422). Kind of test: mGlu3 in vitro GIRK thallium flux assay. Type of test: cell-based. Particulars: NAM; 2.5 min compound incubation; EC80 glutamate; HEK-293 GIRK cells. Summed up: as §1
The mark [3] stands for this setting: 2.5 min compound incubation, read-out: mGlu2 EC50 (μM) (2.5 min).
[4] abbreviates: read-out: mGlu2 EC50 (μM) (60 min), 60 min compound incubation.
Where [5] appears, read: mGlu2 EC50 (μM) (60 min), 60 min compound incubation.

Structures are written as SMILES. Where two headings read alike, the source gives them in different places. Some results are limits rather than exact numbers.

Chain of rat mGlu2 receptor (P31421 19-872): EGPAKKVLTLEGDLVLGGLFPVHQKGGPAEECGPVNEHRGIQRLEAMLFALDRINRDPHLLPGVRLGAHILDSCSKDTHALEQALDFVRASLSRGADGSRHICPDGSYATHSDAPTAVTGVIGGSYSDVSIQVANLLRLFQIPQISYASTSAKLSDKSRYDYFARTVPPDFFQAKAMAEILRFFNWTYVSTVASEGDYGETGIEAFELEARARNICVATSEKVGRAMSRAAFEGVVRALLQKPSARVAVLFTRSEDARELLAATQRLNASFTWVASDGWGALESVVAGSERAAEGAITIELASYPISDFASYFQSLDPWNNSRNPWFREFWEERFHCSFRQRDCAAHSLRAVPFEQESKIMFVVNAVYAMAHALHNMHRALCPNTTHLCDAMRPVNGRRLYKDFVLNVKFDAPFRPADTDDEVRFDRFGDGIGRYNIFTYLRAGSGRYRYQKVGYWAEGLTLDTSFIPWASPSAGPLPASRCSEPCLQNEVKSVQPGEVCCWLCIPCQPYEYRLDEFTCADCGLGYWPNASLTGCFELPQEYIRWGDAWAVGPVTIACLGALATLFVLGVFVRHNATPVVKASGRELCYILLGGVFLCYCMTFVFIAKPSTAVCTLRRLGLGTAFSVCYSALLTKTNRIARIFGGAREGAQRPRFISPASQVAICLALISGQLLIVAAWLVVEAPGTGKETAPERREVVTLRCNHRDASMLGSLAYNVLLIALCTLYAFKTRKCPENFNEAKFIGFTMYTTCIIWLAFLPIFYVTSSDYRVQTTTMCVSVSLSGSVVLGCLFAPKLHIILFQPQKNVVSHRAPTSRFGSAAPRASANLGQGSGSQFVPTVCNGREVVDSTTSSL
Chain of rat mGlu3 receptor (P31422 23-879): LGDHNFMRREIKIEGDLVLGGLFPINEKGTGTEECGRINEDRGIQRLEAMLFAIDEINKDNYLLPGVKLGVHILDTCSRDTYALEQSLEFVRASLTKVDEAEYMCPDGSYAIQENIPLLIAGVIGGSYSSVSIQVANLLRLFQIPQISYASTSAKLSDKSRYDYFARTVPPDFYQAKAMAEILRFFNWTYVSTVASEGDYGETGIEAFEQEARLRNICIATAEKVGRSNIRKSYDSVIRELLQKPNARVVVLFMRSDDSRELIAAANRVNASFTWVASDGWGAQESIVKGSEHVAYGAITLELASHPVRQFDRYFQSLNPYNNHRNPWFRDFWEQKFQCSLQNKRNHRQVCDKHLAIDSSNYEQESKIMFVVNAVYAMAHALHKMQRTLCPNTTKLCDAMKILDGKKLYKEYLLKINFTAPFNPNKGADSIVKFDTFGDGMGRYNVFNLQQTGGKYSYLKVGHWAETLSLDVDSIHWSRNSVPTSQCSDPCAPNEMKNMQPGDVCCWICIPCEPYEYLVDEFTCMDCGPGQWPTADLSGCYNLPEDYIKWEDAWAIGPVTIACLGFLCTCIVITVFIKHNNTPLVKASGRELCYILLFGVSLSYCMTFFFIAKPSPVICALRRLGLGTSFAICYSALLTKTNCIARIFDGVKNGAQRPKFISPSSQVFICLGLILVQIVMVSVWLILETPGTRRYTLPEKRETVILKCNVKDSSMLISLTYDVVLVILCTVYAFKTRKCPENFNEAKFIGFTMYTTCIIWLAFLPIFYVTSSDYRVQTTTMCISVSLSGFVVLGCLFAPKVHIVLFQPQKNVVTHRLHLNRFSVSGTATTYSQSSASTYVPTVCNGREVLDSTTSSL

For `O=C1CC(c2ccnc(Cl)c2)=Nc2ccc(-c3ccc(Cl)cc3)cc2N1` [Example 186, 8-(4-Chlorophenyl)-4-(2-chloropyridin-4-yl)-1,3-dihydro-2H-benzo[b][1,4]diazepin-2-one], the 50% effective concentration (EC50) in test [1] (setting [3]) was 2.42 µM; in test [1] (setting [4]) it was 1.01 µM; in test [2], 1.36 µM.

As to `Cc1cc2c(cc1C(F)(F)F)NC(=O)CC(c1cccc(CCCO)c1)N2` (racemic) [Example 154, 4-(3-(3-Hydroxypropyl)phenyl)-7-methyl-8-(trifluoromethyl)-4,5-dihydro-1H-benzo[b][1,4]diazepin-2(3H)-one], the EC50 in test [1] (setting [3]) was greater than 10 µM; in test [1] (setting [5]), 4.43 µM; in test [2], greater than 10 µM.

`O=C(O)c1cccc(-c2cccc(-c3coc(-c4ccccc4)c3)c2)c1` [Example 46, 3′-(5-phenylfuran-3-yl)biphenyl-3-carboxylic Acid]: the figures for the EC50 in test [1] (setting [3]), in test [1] (setting [5]) and in test [2] were greater than 10 µM, greater than 10 µM and greater than 30 µM, respectively.

Consider `O=C1CC(c2ccnc(Cl)c2)=Nc2ccc(-c3ccccc3F)cc2N1` [Example 187, 4-(2-Chloropyridin-4-yl)-8-(2-fluorophenyl)-1,3-dihydro-2H-benzo[b][1,4]diazepin-2-one], for which the EC50 in test [1] (setting [3]) worked out at 0.98 µM; in test [2], 0.71 µM.

With `O=C(O)c1cccc(-c2cccc(-c3csc(-c4ccc5c(c4)OCCO5)n3)c2)c1` [Example 34, 3-[3-(2-(2H,3H-benzo[e]1,4-dioxin-6-yl)-1,3-thiazol-4-yl)phenyl]benzoic acid], the 50% effective concentration (EC50) in test [1] (setting [3]) was greater than 10 µM; in test [1] (setting [4]), 0.28 µM; in test [2], greater than 10 µM.

With `O=C(O)c1cc(-c2cccc(-c3nc(-c4cccnc4F)cc(C(F)(F)F)n3)c2)ccc1F` [Example 97, 4-Fluoro-3′-(4-(2-fluoropyridin-3-yl)-6-(trifluoromethyl)pyrimidin-2-yl)biphenyl-3-carboxylic Acid], the figures for the 50% effective concentration (EC50) in test [1] (setting [3]), in test [1] (setting [4]) and in test [2] were 1.07 µM, 0.36 µM and 2.21 µM, respectively.

Consider `O=C(O)c1ccccc1-c1cccc(-c2nc(-c3ccccc3)n(-c3ccccc3)n2)c1` [Example 61, 3′-(1,5-Diphenyl-1H-1,2,4-triazol-3-yl)-[1,1′-biphenyl]-2-carboxylic Acid], for which the figures for the EC50 in test [1] (setting [3]), in test [1] (setting [4]) and in test [2] were greater than 30 µM, greater than 30 µM and greater than 10 µM, respectively.

Take `O=C(O)c1ccc(-c2cccc(-c3nc(-c4ccc(C(F)(F)F)nc4)cc(C(F)(F)F)n3)c2)c(Cl)c1` [Example 78, 2-Chloro-3′-(4-(trifluoromethyl)-6-(6-(trifluoromethyl)pyridin-3-yl)pyrimidin-2-yl)biphenyl-4-carboxylic Acid]: the concentration giving a half-maximal response (EC50) is 3.49 µM in test [1] (setting [3]), 1.18 µM in test [1] (setting [4]) and 6.32 µM in test [2].

Take `Cc1cc2c(cc1C(F)(F)F)NC(=O)CC(c1cccc(C#Cc3ccccc3)c1)=N2` [Example 202, 7-Methyl-4-(3-phenylethynyl-phenyl)-8-trifluoromethyl-1,3-dihydro-benzo[b][1,4]diazepin-2-one]: the EC50 in test [1] (setting [3]), in test [1] (setting [4]) and in test [2] was greater than 10 µM throughout.

For `O=C(O)c1cccc(-c2cccc(-c3csc(-c4ccccc4)n3)c2)c1` [Example 28, 3′-(2-Phenylthiazol-4-yl)biphenyl-3-carboxylic Acid], the EC50 in test [1] (setting [5]) is 0.2 µM; in test [2], greater than 10 µM.

Take `O=C(O)c1cc(-c2ccc(-c3nc(-c4ccc(C(F)(F)F)nc4)cc(C(F)(F)F)n3)cc2)ccc1F` [Example 82, 4-Fluoro-4′-(4-(trifluoromethyl)-6-(6-(trifluoromethyl)pyridin-3-yl)pyrimidin-2-yl)biphenyl-3-carboxylic Acid]: the concentration for a half-maximal effect (EC50) in test [1] (setting [3]) was found to be 1.42 µM; in test [1] (setting [4]), 0.49 µM; in test [2], 1.32 µM.

Take `O=C(O)c1cc(-c2cccc(-c3csc(-c4cc5ccccc5s4)n3)c2)ccc1F` [Example 8, 3′-(2-(Benzo[b]thiophen-2-yl)thiazol-4-yl)-4-fluorobiphenyl-3-carboxylic Acid]: the half-maximal effective concentration (EC50) in test [1] (setting [3]) is greater than 10 µM; in test [1] (setting [5]) it was 1.92 µM; in test [2] it was greater than 10 µM.

On to `Nc1cccc(-c2cn(-c3nc(-c4ccc(C(F)(F)F)nc4)cc(C(F)(F)F)n3)cn2)c1` [Example 126, 3-(1-(4-(Trifluoromethyl)-6-(6-(trifluoromethyl)pyridin-3-yl)pyrimidin-2-yl)-1H-imidazol-4-yl)aniline], for which the concentration for a half-maximal effect (EC50) in test [1] (setting [3]) is greater than 30 µM; in test [1] (setting [4]), greater than 10 µM; in test [2] it was greater than 30 µM.

For the compound `O=C(O)c1cccc(-c2cccc(-c3nc(-c4ccoc4)n(-c4ccccc4)n3)c2)c1` [Example 59, 3′-(5-(Furan-3-yl)-1-phenyl-1H-1,2,4-triazol-3-yl)-[1,1′-biphenyl]-3-carboxylic acid], the values for the EC50 in test [1] (setting [3]), in test [1] (setting [5]) and in test [2] were greater than 10 µM, 3.78 µM and greater than 10 µM, respectively.

Take `O=C(O)c1cc(-c2ccc(-c3nc(-c4ccc(C(F)(F)F)nc4)cc(C(F)(F)F)n3)cc2)ccc1Cl` [Example 83, 4-Chloro-4′-(4-(trifluoromethyl)-6-(6-(trifluoromethyl)pyridin-3-yl)pyrimidin-2-yl)biphenyl-3-carboxylic Acid]: the figures for the EC50 in test [1] (setting [3]), in test [1] (setting [4]) and in test [2] were 2.95 µM, 1.23 µM and greater than 10 µM, respectively.

Take `O=C(O)c1cccc(-c2cccc(-c3nc(-c4ccc(C(F)(F)F)nc4)cc(C(F)(F)F)n3)c2)c1` [Example 69, 3′-(4-(Trifluoromethyl)-6-(6-(trifluoromethyl)pyridin-3-yl)pyrimidin-2-yl)biphenyl-3-carboxylic Acid]: the figures for the concentration for a half-maximal effect (EC50) in test [1] (setting [3]), in test [1] (setting [4]) and in test [2] were 0.95 µM, 0.11 µM and 1.07 µM, respectively.

For `O=C(O)c1cc(F)cc(-c2cccc(-c3nsc(-c4ccccc4)n3)c2)c1` [Example 40, 5-Fluoro-3′-(5-phenyl-1,2,4-thiadiazol-3-yl)biphenyl-3-carboxylic Acid], the values for the EC50 in test [1] (setting [3]), in test [1] (setting [5]) and in test [2] were 0.4 µM, 0.1 µM and 2.78 µM, respectively.

As for `O=C(O)c1cccc(-c2cccc(-c3nc(-c4ccccc4)n(-c4cccc5ccccc45)n3)c2)c1` [Example 57, 3′-(1-(Naphthalen-1-yl)-5-phenyl-1H-1,2,4-triazol-3-yl)-[1,1′-biphenyl]-3-carboxylic Acid], the concentration for a half-maximal effect (EC50) in test [1] (setting [3]), in test [1] (setting [5]) and in test [2] was greater than 10 µM throughout.

As to `O=C(O)c1ccc(F)c(-c2cccc(-c3nsc(-c4ccccc4)n3)c2)c1` [Example 41, 6-Fluoro-3′-(5-phenyl-1,2,4-thiadiazol-3-yl)biphenyl-3-carboxylic Acid], the figures for the half-maximal effective concentration (EC50) in test [1] (setting [3]), in test [1] (setting [5]) and in test [2] were 0.89 µM, 0.11 µM and greater than 10 µM, respectively.

As for `CNC(=O)c1cc(-c2cccc(-c3nc(-c4ccc(C(F)(F)F)nc4)cc(C(F)(F)F)n3)c2)ccc1Cl` [Example 85, 4-Chloro-N-methyl-3′-(4-(trifluoromethyl)-6-(6-(trifluoromethyl)pyridin-3-yl)pyrimidin-2-yl)biphenyl-3-carboxamide], the EC50 in test [1] (setting [3]) was greater than 30 µM; in test [1] (setting [4]) it was greater than 10 µM; in test [2] it was greater than 30 µM.

Regarding `Cc1cc2c(cc1C(F)(F)F)NC(=O)CC(c1cccc(Oc3ncccn3)c1)N2` (racemic) [Example 164, 7-Methyl-4-(3-(pyrimidin-2-yloxy)phenyl)-8-(trifluoromethyl)-4,5-dihydro-1H-benzo[b][1,4]diazepin-2(3H)-one], the EC50 in test [1] (setting [3]) was greater than 10 µM; in test [1] (setting [5]) it was 1.56 µM; in test [2], 5.57 µM.

In the case of `O=C(O)c1cc(-c2cccc(-c3nc(-c4cccnc4)cc(C(F)(F)F)n3)c2)ccc1F` [Example 116, 4-Fluoro-3′-(4-(pyridin-3-yl)-6-(trifluoromethyl)pyrimidin-2-yl)biphenyl-3-carboxylic Acid], the concentration for a half-maximal effect (EC50) in test [1] (setting [3]) is 2.11 µM; in test [1] (setting [4]), 0.27 µM; in test [2] it was 8.58 µM.

Regarding `O=C(O)c1cc(-c2cccc(Nc3nc(-c4ccco4)cc(C(F)(F)F)n3)c2)ccc1F` [Example 127, 4-Fluoro-3′-(4-(furan-2-yl)-6-(trifluoromethyl)pyrimidin-2-ylamino)biphenyl-3-carboxylic Acid], the figures for the EC50 in test [1] (setting [3]), in test [1] (setting [4]) and in test [2] were 5.33 µM, greater than 10 µM and 3.9 µM, respectively.

As for `COc1ccc(C(=O)O)cc1-c1cccc(-c2csc(-c3ccccc3)n2)c1` [Example 23, 6-Methoxy-3′-(2-phenylthiazol-4-yl)biphenyl-3-carboxylic Acid], the half-maximal effective concentration (EC50) in test [1] (setting [3]) was 1.81 µM; in test [1] (setting [5]) it was 1.35 µM; in test [2], greater than 10 µM.

Regarding `O=C(O)c1ccc(-c2cccc(-c3csc(-c4ccccc4)n3)c2)cc1` [Example 22, 3′-(2-Phenylthiazol-4-yl)biphenyl-4-carboxylic Acid], the half-maximal effective concentration (EC50) was greater than 30 µM in test [1] (setting [3]), greater than 10 µM in test [1] (setting [5]) and greater than 30 µM in test [2].

In the case of `O=Cc1cc(-c2cccc(-c3csc(-c4ccccc4)n3)c2)ccc1F` [Example 19, 4-Fluoro-3′-(2-phenylthiazol-4-yl)biphenyl-3-carbaldehyde], the concentration giving a half-maximal response (EC50) in test [1] (setting [3]) was 3.67 µM; in test [1] (setting [5]), 1.55 µM; in test [2], greater than 10 µM.

Consider `O=C(O)c1cc(-c2cccc(-c3csc(-c4ccc(C(F)(F)F)nc4)n3)c2)ccc1F` [Example 5, 4-Fluoro-3′-(2-(6-(trifluoromethyl)pyridin-3-yl)thiazol-4-yl)biphenyl-3-carboxylic Acid], for which the EC50 in test [1] (setting [3]) is 1.35 µM; in test [1] (setting [5]) it was 0.85 µM; in test [2] it was 3.11 µM.

What is called EC50 is the concentration needed to bring the measured effect to its halfway point.
